Earlier results in US20240101584A1, “TARGETED DELIVERY OF 1,2,4,5 TETRAOXANE COMPOUNDS AND THEIR USES” (Westlake University, priority 2021, published 2024).

Experiments:
MDA-MB-231 cells = conditions: reported data of known compounds; cited from earlier work
HCT116 cells = conditions: reported data of known compounds; cited from earlier work
HL-60 cells = conditions: cited from earlier work; for IC50: reported data of known compounds
Hela cells = conditions: reported compound in the literature; read-out: overall IC50, Hela cells, reported compound; cited from earlier work
HepG2 cells = conditions: reported compound in the literature; read-out: overall IC50, HepG2 cells, reported compound; cited from earlier work
PMBC = conditions: reported compound in the literature; cited from earlier work
HEK293 cells = conditions: reported compound in the literature; read-out: overall IC50, HEK293 cells, reported compound; cited from earlier work

SMILES	IC50 (MDA-MB-231 cells) [µM]	IC50 (HCT116 cells) [µM]	IC50 (HL-60 cells) [µM]	IC50 (Hela cells) [µM]	IC50 (HepG2 cells) [µM]	IC50 (PMBC) [µM]	IC50 (HEK293 cells) [µM]	best selectivity index (PMBC versus HL-60) (HL-60 cells; reported compound in the literature)
CC(C)(N)CNC(=O)C[C@H]1CC[C@]2(CC1)OO[C@]1(O2)C2CC3CC(C2)CC1C3 [OZ277]	35.2	68.3	53.8					
CN1CCN(C2CCN(C(=O)CC3CCC4(CC3)OOC3(OO4)C4CC5CC(C4)CC3C5)CC2)CC1 (stereo not drawn) [RKA182]			11.6 ± 0.4	> 12	> 12	46.6 ± 0.7	> 12	4
